Results from patent publication US20230265068A1, “TRANSIENT RECEPTOR POTENTIAL CANONICAL 3 INHIBITORS AND METHODS OF USE THEREOF” (University of Tennessee Research Foundation, priority 2020, published 2023).

Assays:
[1] = maximum tolerated dose / in vivo toxicity study in mice; conditions: 200 mg/kg/day IP for five consecutive days
Procedure: The in vivo study was performed in compliance with the NIH Animal Use Guidelines and protocol approved by the Institutional Animal Care and Use Committee (IACUC) at the University of Tennessee Health Science Center (UTHSC, Memphis, Tenn.). NSG mice at 8 weeks (n=2) and ICR mice at 12 weeks (n=3) were housed with a 12:12-hour light-dark cycle and fed a breeder chow diet. Daily IP injections of 200 mg/kg of compounds 22 or 79 were administered for five consecutive injections in five mice, respectively, which were followed to monitor the mortality rate. Body weights of the mice were recorded daily.
The metabolic stability of compound 22 was tested prior to the next phase of in vivo study. […] The maximum tolerated dose (MTD) study was subsequently performed to investigate its in vivo toxicity (FIGS. 4A and 4B). The second major limitation of Pyr3 is its toxicity due to its alkylating tail moiety. While replacing only the fast-metabolizing head ester group in Pyr3 with a stable amide (compound 79) improved metabolic stability, a single IP injection of compound 79 at 200 mg/kg killed all mice within 24 h.
Compound 79 is a metabolically stable version of Pyr3. Mice treated daily with compound 22 or compound 79 (n=5) for 5 consecutive days. All the mice were treated with either compound 22 or 79 at 200 mg/kg (IP). […]

PTZ-induced seizures = experiment: mouse pentylenetetrazole (PTZ) model of SE; type: in vivo, mice; conditions: 100 mg/kg, i.p., 30 min before PTZ; vs vehicle
Procedure: FIGS. 8A-8B show the inhibition of TRPC3 channels by compound 22 reduces susceptibility of animals to PTZ-induced seizures. Young adult C57BL/6 mice (male, 8-9 weeks) were first treated by compound 22 (100 mg/kg, i.p.), and 30 minutes later by pentylenetetrazole (PTZ, 80±5 mg/kg, s.c.) for the induction seizures. (FIG. 8A) Percentages of mice reaching myoclonic jerk (MJ, Left) and generalized tonic-clonic seizure (GTCS, Right) were compared between vehicle and compound 22-treated mice by Mantel-Cox log-rank test. (FIG. 8B) Latencies to the first MJ (Left) and first GTCS (Right) were compared between vehicle and compound 22 by t-test. Data are shown as mean+SEM (number of mice N=9 for vehicle; 10 for compound 22).
To ensure that the efficacy observed in FIG. 7 is not associated with this particular mouse model of epilepsy, we examined the effects of our current lead compound 22 on pentylenetetrazole (PTZ)-induced seizures in mice. As a GABA receptor antagonist, PTZ is another convulsant chemical commonly used to generate seizures in experimental rodents. Young adult C57BL/6 mice (male, 8-9 weeks) were first treated by 22 (100 mg/kg, i.p.) or vehicle. Thirty minutes later, mice were subcutaneously injected with (PTZ, ˜80 mg/kg) to induced seizures. Animals were placed in a plexiglass chamber, and the latencies to the first myoclonic jerk (MJ) and the first generalized tonic-clonic seizure (GTCS) were recorded during a 30-min period of observation. […] Given that PTZ (FIG. 8) and pilocarpine (FIG. 7) trigger seizures via different mechanisms of actions, it is unlikely the anti-seizure effects of our lead compound 22 are model-specific.

## CCNC(=O)c1cnn(-c2ccc(-n3ccc(Cl)c(Cl)c3=O)cc2)c1C(F)(F)F [Compound 22]
[1]
  acute toxicities / body weight loss: no acute toxicities or body weight loss
PTZ-induced seizures
  latency to first GTCS: significantly increased
  latency to first MJ: significantly increased
  percentage of mice that reached generalized tonic-clonic seizure (GTCS): substantially reduced
  percentage of mice that reached myoclonic jerk (MJ): substantially reduced
